This experiment relates to PAF-induced hypotension. Put plainly: Inhibition of PAF-induced hypotension. Conditions: Rattus norvegicus, iv; 50% inhibitory dose from dose-response curve for inhibition of PAF-induced hypotension; rats; read-out: Inhibition of Hypotension ID50. The experiment is classed as in vivo, rats of the Wistar-Imamichi strain. Here is the method:
The test animals employed were rats of the Wistar-Imamichi strain, each weighing between 350 and 450 g.
Under Inactin anesthesia (90 mg/kg administered intraperitoneally) the left femoral artery and vein of each test animal were cannulated to enable the arterial blood pressure to be monitored continuously and for drug administration, respectively. At intervals of about 5 minutes, each animal was given by intravenous injection 10 ng/kg of synthetic I-C16:0 PAF until a steady hypotensive response was achieved. At this time, the drug to be tested was administered by intravenous injection in doses increasing cumulatively by a factor of 4. Within I minute of this injection, a further 10 ng/kg of the IC16:0 PAF was administered. The hypotensive response to PAF was inhibited by the test drug in a dose-related manner.
The PAF was administered in the form of a solution in physiological saline containing 0.25% w/v bovine serum albumin. The test drugs were dissolved in physiological saline containing 20% v/v ethanol.
The 50% inhibitory dose (ID 50 ) was calculated from the dose-response curve constructed for the inhibition of PAF-induced hypotension.
This test was carried out using compounds of the invention, as well as the prior art compound CV-3988, disclosed in US Patent No. 4,408,052 and represented by the foregoing formula (B).

Molecules are shown by their SMILES.

Take `CCCCCCCCCCCCCCCCCCNC(=O)OCC(COP(=O)([O-])OCC[n+]1ccsc1)OC` (stereo not shown) [CV - 3988]: the ED50 amounted to 0.42 mg/kg.

The values above are taken from EP0251827A2, “New cyclic ether derivatives, their preparation and their use” (Sankyo Company Limited, priority 1986, dated 1988).
